Data: US11952384B2, “Anti-tumor compound and preparation method and use thereof” (DUALITY BIOLOGICS (SUZHOU) CO., LTD., priority 2020, dated 2024)
Read-outs that look alike come from different tables or passages of the source.

How the values were obtained:
NCI-N87 cells = assay: Inhibition of in vitro proliferation of tumor cells by compounds (CTG, 6 days); format: cell-based; conditions: small molecule fragments, 6 days of culture, CTG, read-out: NCI-N87 IC50
Method: (§1) To test the inhibitory activity of the pharmaceutical compounds on the in vitro proliferation of NCI-N87, JIMT-1 and MBA-MB-231 tumor cells. The cells were treated with the compounds at different concentrations in vitro, and after 6 days of culture, the proliferation of cells was detected using the CTG (CellTiter-Glo® Luminescent Cell Viability Assay, Promega, Cat. No. G7558) reagent, and the in vitro activity of the compounds was evaluated according to the IC50 value.
(§2) In the following, the test for the inhibition of the in vitro proliferation of NCI-N87 cells was taken as an example to illustrate the method of the present application for testing the inhibitory activity of the compounds of the present application on the in vitro proliferation of tumor cells. The method was also applicable to, but not limited to, the test for the inhibitory activity on the in vitro proliferation of other tumor cells. • 1. Culturing of cells: NCI-N87 cells were cultured in RPMI-1640 medium containing 10% FBS. • 2. Preparation of cells: NCI-N87 cells in logarithmic phase were taken, washed with PBS once, and digested with 2-3 mL of trypsin for 2-3 min. After the cells were digested completely, 10-15 mL of cell culture was added to elute the digested cells. The eluate was centrifuged at 1000 rpm for 5 min, and the supernatant was discarded. The resulting cells were resuspended in 10-20 mL of cell culture to obtain a single cell suspension. • 3. Cell plating: the NCI-N87 single cell suspension was mixed well and adjusted to a viable cell density of 6×10^4 cells/mL with cell culture. The cell suspension with the adjusted density was mixed well and added to a 96-well cell culture plate at 50 μL/well. The culture plate was incubated in an incubator for 18 h (37° C., 5% CO2). • 4. Preparation of compounds: the compounds were dissolved in DMSO to obtain stock solutions at an initial concentration of 10 mM. There were 8 concentrations in total for the small molecule compounds: 300 nM, 100 nM, 30 nM, 10 nM, 3 nM, 1 nM, 0.3 nM, and 0.1 nM. • 5. Sample adding: the prepared samples to be detected at different concentrations were added to the culture plate, and two duplicate wells were set for each sample. The culture plate was incubated in an incubator for 6 days (37° C., 5% CO2). • 6. Color developing: the 96-well cell culture plate was taken out, added with the CTG reagent at 50 μL/well, and incubated at room temperature for 10 min. • 7. Plate reading: the 96-well cell culture plate was taken out, placed in a microplate reader, and measured for the chemiluminescence using the microplate reader. Data Analysis
(§3) Data were processed and analyzed using Microsoft Excel and Graphpad Prism 5.
(§4) To test the inhibitory activity of the pharmaceutical compounds on the in vitro proliferation of NCI-N87, JIMT-1 and MBA-MB-231 tumor cells. The cells were treated with compounds at different concentrations in vitro, and after 6 days of culture, the proliferation of cells was detected using CTG (CellTiter-Glo® Luminescent Cell Viability Assay, Promega, Cat. No. G7558) reagents, and the in vitro activity of the compounds was evaluated according to the IC50 value. • 1. Culturing of cells: NCI-N87/JIMT-1/MBA-MB-231 cells were cultured in RPMI-1640 medium containing 10% FBS. • 2. Preparation of cells: NCI-N87/JIMT-1/MBA-MB-231 cells in logarithmic phase were taken, washed with PBS once, and digested with 2-3 mL of trypsin for 2-3 min. After the cells were digested completely, 10-15 mL of cell culture was added to elute the digested cells. The eluate was centrifuged at 1000 rpm for 5 min, and the supernatant was discarded. The resulting cells were resuspended in 10-20 mL of cell culture to obtain a single cell suspension. • 3. Cell plating: the NCI-N87/JIMT-1/MBA-MB-231 single cell suspension was mixed well and adjusted to a viable cell density of 6×10^4 cells/mL with cell culture. […]

MDA-MB-231 cells = assay: as above; format: cell-based; conditions: Homo sapiens, MDA-MB-231, 144 h, Table 3, Test Example 2.3; small molecule fragments; 6 days of culture, CTG; read-out: MDA-MB-231 IC50
Method: To test the inhibitory activity of the pharmaceutical compounds on the in vitro proliferation of NCI-N87, JIMT-1 and MBA-MB-231 tumor cells. The cells were treated with compounds at different concentrations in vitro, and after 6 days of culture, the proliferation of cells was detected using CTG (CellTiter-Glo® Luminescent Cell Viability Assay, Promega, Cat. No. G7558) reagents, and the in vitro activity of the compounds was evaluated according to the IC50 value. • 1. Culturing of cells: NCI-N87/JIMT-1/MBA-MB-231 cells were cultured in RPMI-1640 medium containing 10% FBS. • 2. Preparation of cells: NCI-N87/JIMT-1/MBA-MB-231 cells in logarithmic phase were taken, washed with PBS once, and digested with 2-3 mL of trypsin for 2-3 min. After the cells were digested completely, 10-15 mL of cell culture was added to elute the digested cells. The eluate was centrifuged at 1000 rpm for 5 min, and the supernatant was discarded. The resulting cells were resuspended in 10-20 mL of cell culture to obtain a single cell suspension. • 3. Cell plating: the NCI-N87/JIMT-1/MBA-MB-231 single cell suspension was mixed well and adjusted to a viable cell density of 6×10^4 cells/mL with cell culture. The cell suspension with the adjusted density was mixed well and added to a 96-well cell culture plate at 50 μL/well. The culture plate was incubated in an incubator for 18 h (37° C., 5% CO2). • 4. Preparation of compounds: the compounds were dissolved in DMSO to obtain stock solutions at an initial concentration of 10 mM. There were 8 concentrations in total for the small molecule compounds: 300 nM, 100 nM, 30 nM, 10 nM, 3 nM, 1 nM, 0.3 nM, and 0.1 nM. • 5. Sample adding: the prepared samples to be detected at different concentrations were added to the culture plate, and two duplicate wells were set for each sample. The culture plate was incubated in an incubator for 6 days (37° C., 5% CO2). • 6. Color developing: the 96-well cell culture plate was taken out, added with the CTG reagent at 50 μL/well, and incubated at room temperature for 10 min. • 7. Plate reading: the 96-well cell culture plate was taken out, placed in a microplate reader, and measured for the chemiluminescence using the microplate reader. Data analysis: data were processed and analyzed using Microsoft Excel and Graphpad Prism 5.

Colo205 cells = assay: as above; format: cell-based; conditions: Homo sapiens, COLO 205, 144 h, Table 4, Test Example 2.4, small molecule fragments, 6 days of culture
Method: To test the inhibitory activity of the pharmaceutical compounds on the in vitro proliferation of NCI-N87 and Colo205 tumor cells. The cells were treated with compounds at different concentrations in vitro, and after 6 days of culture, the proliferation of cells was detected using CTG (CellTiter-Glo® Luminescent Cell Viability Assay, Promega, Cat. No. G7558) reagents, and the in vitro activity of the compounds was evaluated according to the IC50 value. • 1. Culturing of cells: NCI-N87/Colo205 cells were cultured in RPMI-1640 medium containing 10% FBS. • 2. Preparation of cells: NCI-N87/Colo205 cells in logarithmic phase were taken, washed with PBS once, and digested with 2-3 mL of trypsin for 2-3 min. After the cells were digested completely, 10-15 mL of cell culture was added to elute the digested cells. The eluate was centrifuged at 1000 rpm for 5 min, and the supernatant was discarded. […] Sample adding: the prepared samples to be detected at different concentrations were added to the culture plate, and two duplicate wells were set for each sample. […] Plate reading: the 96-well cell culture plate was taken out, placed in a microplate reader, and measured for the chemiluminescence using the microplate reader. Data analysis: data were processed and analyzed using Microsoft Excel and Graphpad Prism 5.

JIMT-1 cells = assay: as above; format: cell-based; conditions: Table 1, Test Example 2.1, small molecule fragments, 6 days of culture, CTG, read-out: JIMT-1 IC50
Method: as §1, §2, §3, §4

P-gp = target: T1, P-gp (Homo sapiens, UniProt P08183); assay: Study on transporter substrates in Caco-2 cell model; format: in vitro ADME; conditions: Caco-2
T1 construct: endogenous in cells; host or cells: Caco-2
Method: The resistance of each well was recorded. […] 2. […] The plate was vortexed for 10 min. The samples were centrifuged. […] HBSS was added to the basolateral compartment. […] 3. Data Analysis
Data were calculated using Microsoft Excel.

BCRP [1] = target: T2, BCRP (Homo sapiens, UniProt Q9UNQ0); conditions: Caco-2
T2 sequence (Q9UNQ0 1-655): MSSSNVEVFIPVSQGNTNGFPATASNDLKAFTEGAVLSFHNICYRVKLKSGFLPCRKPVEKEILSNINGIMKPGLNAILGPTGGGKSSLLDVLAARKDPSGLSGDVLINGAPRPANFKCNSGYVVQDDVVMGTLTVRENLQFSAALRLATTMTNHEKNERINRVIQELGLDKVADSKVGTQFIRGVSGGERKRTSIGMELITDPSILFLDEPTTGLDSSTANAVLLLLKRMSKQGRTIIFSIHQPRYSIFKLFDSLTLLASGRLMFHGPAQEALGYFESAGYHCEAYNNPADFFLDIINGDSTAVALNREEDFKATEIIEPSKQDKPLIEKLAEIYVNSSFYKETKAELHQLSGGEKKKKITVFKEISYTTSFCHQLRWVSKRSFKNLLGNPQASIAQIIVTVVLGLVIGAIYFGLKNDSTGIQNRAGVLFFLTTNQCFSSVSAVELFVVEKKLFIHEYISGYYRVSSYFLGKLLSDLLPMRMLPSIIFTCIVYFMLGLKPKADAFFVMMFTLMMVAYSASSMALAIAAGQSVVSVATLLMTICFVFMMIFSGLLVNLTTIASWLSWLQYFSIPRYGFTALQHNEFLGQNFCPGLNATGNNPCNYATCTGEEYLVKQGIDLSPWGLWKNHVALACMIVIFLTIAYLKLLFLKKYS
Method: (§5) To investigate whether the compounds of the present invention is a substrate for efflux transporters P-gp and BCRP in a Caco-2 cell model, thereby providing preclinical basis for analyzing the drug-drug interaction in pharmacokinetics.
(§6) • 1) Cell culture medium was added to each well of the Transwell. The HTS Transwell plate was incubated under conditions of 37° C. and 5% CO2 for 1 h prior to cell inoculation. • 2) Caco-2 cells were diluted with culture medium and the cell suspension was dispensed into filter wells of the 96-well HTS Transwell plate. […] The cell culture medium was changed periodically. • 3) Monolayer cell resistance was measured using the Millicell Epithelial Volt-Ohm detection system. The resistance of each well was recorded. After all wells were measured, the Transwell plate was put back into the incubator. TEER of each well was calculated according to the formula. The TEER value of each well should be greater than 230 ohm·cm^2. […] Preparation for Transporter Test • 1) The Caco-2 plate was taken out from the incubator. The monolayer cells were washed with pre-heated HBSS twice. The plate was then incubated at 37° C. for 30 min. • 2) Stock solutions of the compounds were prepared in DMSO and diluted with HBSS to obtain working solutions. Digoxin was used as a reference substrate for P-gp and rosuvastatin was used as a reference substrate for BCRP. Propranolol was used as a high permeability marker. • 3) The working solution (without inhibitor) was added to the Transwell insert (apical compartment) to determine the rate of drug transport in the apical to basolateral direction. The transfer buffer was added to the wells in the receiver plate (basolateral compartment). The working solution (without inhibitor) was added to the receiver plate wells (basolateral compartment) to determine the rate of drug transport in the basolateral to apical direction. The Transwell insert (apical compartment) was filled with the transport buffer. PSC833 was added to the apical and basolateral compartments to determine the rate of drug transport in the presence of P-gp inhibitors. • 4) The sample was transferred from the working solution to the quenching solution, and a sample with a time of 0 was prepared. The Transwell plate was incubated under conditions of 37° C. and 5% CO2 for 2 h. • 5) At the end of the transport cycle, the samples were transferred from the apical and basolateral wells into a new 96-well plate. Cold acetonitrile or methanol containing the appropriate internal standard (IS) was added to each well of the plate. The plate was vortexed for 10 min. The samples were centrifuged. The supernatant of an aliquot was mixed with an appropriate amount of ultrapure water (depending on the LC-MS/MS signal response and peak shape) prior to the LC-MS/MS analysis. • 6) The stock solution of lucifer yellow in DMSO was prepared and diluted with HBSS to determine the amount of lucifer yellow leakage after a 2-hour transport period. The lucifer yellow solution was added to the apical compartment. HBSS was added to the basolateral compartment. The plate was incubated at 37° C. for 30 min, and a certain amount of the solution was directly taken from the apical and basolateral wells and transferred to a new 96-well plate. The lucifer yellow fluorescence was measured in a fluorescence plate reader with 485 nm excitation and 530 nm emission (to monitor monolayer integrity).
(§7) Data were calculated using Microsoft Excel. The percentage of the compound remaining at each time point was estimated by determining the peak area ratio from the extracted ion chromatogram.
(§8) For drug transport analysis in the Caco-2 cell model, the apparent permeability coefficient (Papp) can be calculated according to the following formula, in cm/s:
(§9) [formula] • wherein the concentration C is in nM, the volume V is in μL, the time T is in s, and the area S is in cm^2.
(§10) The recovery rate is calculated according to the following formula:

BCRP [2] = target: T2, BCRP; assay: in vitro
Method: as §5, §6, §7, §8, §9, §10

BCRP [3] = target: T2, BCRP; assay: Study on transporter substrates in Caco-2 cell model; conditions: human, Caco-2
Method: as §5, §6, §7, §8, §9, §10

T1 sequence (P08183 whole entry): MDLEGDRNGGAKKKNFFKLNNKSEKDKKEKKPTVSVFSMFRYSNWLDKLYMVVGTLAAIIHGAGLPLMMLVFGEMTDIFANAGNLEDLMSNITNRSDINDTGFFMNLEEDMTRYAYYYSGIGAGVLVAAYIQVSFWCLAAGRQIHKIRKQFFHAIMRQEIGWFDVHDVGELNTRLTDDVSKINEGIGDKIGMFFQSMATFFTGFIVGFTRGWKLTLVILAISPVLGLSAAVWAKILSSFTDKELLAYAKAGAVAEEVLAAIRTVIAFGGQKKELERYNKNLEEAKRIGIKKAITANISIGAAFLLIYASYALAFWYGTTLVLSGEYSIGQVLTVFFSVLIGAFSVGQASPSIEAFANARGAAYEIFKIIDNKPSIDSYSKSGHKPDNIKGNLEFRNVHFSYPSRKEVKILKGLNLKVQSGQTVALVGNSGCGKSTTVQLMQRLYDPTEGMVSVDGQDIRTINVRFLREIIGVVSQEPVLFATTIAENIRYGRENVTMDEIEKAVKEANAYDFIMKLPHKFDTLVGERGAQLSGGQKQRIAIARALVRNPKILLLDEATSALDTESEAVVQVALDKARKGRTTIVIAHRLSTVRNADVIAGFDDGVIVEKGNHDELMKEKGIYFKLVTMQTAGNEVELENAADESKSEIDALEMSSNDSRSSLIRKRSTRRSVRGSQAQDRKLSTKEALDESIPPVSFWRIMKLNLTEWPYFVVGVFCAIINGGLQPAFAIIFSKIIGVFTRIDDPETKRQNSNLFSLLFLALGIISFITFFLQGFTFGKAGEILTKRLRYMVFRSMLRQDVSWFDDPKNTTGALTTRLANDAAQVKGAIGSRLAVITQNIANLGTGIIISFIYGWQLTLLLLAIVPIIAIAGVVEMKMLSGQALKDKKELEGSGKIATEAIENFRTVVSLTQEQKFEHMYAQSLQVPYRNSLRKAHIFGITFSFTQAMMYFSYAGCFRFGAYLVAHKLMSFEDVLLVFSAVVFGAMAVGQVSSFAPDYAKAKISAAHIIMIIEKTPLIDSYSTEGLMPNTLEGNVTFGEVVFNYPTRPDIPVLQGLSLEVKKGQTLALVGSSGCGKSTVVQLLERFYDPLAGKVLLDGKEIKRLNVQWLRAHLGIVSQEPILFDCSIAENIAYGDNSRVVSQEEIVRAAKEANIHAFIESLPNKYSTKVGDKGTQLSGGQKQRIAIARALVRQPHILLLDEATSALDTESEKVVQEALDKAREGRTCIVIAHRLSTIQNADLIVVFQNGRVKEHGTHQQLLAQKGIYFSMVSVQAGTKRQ

CC[C@@]1(O)C(=O)OCc2c1cc1n(c2=O)Cc2c-1nc1cc(F)c(C)c3c1c2[C@@H](NC(=O)C[C@H](C)O)CC3 [P-III-30, (S)-N-((1S,9S)-9-ethyl-5-fluoro-9-hydroxy-4-methyl-10,13-dioxo-2,3,9,10,13,15-hexahydro-1H,12H-benzo[de]pyrano[3′,4′:6,7]indolizino[1,2-b]quinolin-1-yl)-3-hydroxybutanamide]
IC50 (NCI-N87 cells; Homo sapiens, NCI-N87, 144 h, Table 4, Test Example 2.4): 0.003 µM
IC50 (MDA-MB-231 cells): 0.0285 µM
IC50 (Colo205 cells): 0.009 µM

CC[C@@]1(O)C(=O)OCc2c1cc1n(c2=O)Cc2c-1nc1cc(F)c(C)c3c1c2[C@@H](N1CCC(O)C1=O)CC3 (some centres unmarked) [P-I-1]
IC50 (JIMT-1 cells; Homo sapiens, JIMT-1, 144 h): 0.0237 µM
IC50 (JIMT-1 cells): 0.0218 µM
IC50 (NCI-N87 cells; Homo sapiens, NCI-N87, 144 h, Table 1, Test Example 2.1): 0.0973 µM
IC50 (NCI-N87 cells; Table 1, Test Example 2.1): 0.0616 µM
P-gp substrate (P-gp): neither transporter P-gp substrates nor transporter BCRP substrates
Papp (A-B) (10^−6, cm/s) (BCRP [1]): 0.21 10^−6, cm/s
Papp (B-A) (10^−6, cm/s) (BCRP [1]): 4.94 10^−6, cm/s
Papp A→B at 2 h (BCRP [2]; Caco-2, Papp (A-B) (10^−6, cm/s)): 1.3 nm/s
Papp B→A at 2 h (BCRP [2]; Caco-2, Papp (B-A) (10^−6, cm/s)): 40.6 nm/s
efflux ratio at 2 h (BCRP [3]; Caco-2, Efflux ratio, KO143 −): 32.4
recovery at 2 h (BCRP [3]; Caco-2, Recovery rate (%) AP-BL, KO143 −): 80.5%
recovery at 2 h (BCRP [3]; Caco-2, Recovery rate (%) BL-AP, KO143 −): 76.1%
recovery at 2 h (BCRP [3]; Caco-2, with KO143 (concentration not stated), Recovery rate (%) AP-BL, KO143 +): 81.5%
recovery at 2 h (BCRP [3]; Caco-2, with KO143 (concentration not stated), Recovery rate (%) BL-AP, KO143 +): 80.3%
